Test results: publication PMC8999917, “Structure–Activity Relationship of Synthetic Ginkgolic Acid Analogs for Treating Type 2 Diabetes by PTPN9 Inhibition” (International Journal of Molecular Sciences, 2022)

Key:
Type in all cases: cell-based, mouse
[1] = test system: C2C12 myotubes; assay: 2-NBDG glucose uptake assay in C2C12 myotubes; conditions: 10 µM, plate reader fluorescence
Protocol: (§1) PTPN9 inhibitors have been reported to increase glucose uptake. To clarify the antidiabetic effects of GA analogs, a 2-NBDG (a fluorescent glucose probe) uptake assay was performed using differentiated 3T3-L1 adipocytes and C2C12 myotubes. After 16 h of starvation, differentiated 3T3-L1 adipocytes were incubated with compounds 1e and 1f for another 1 h. The cells were subsequently incubated with 2-NBDG for 30 min and washed with PBS before quantifying the fluorescence of 2-NBDG taken up by the cells. The 2-NBDG uptake-increasing effects of GA and its analogs in 3T3-L1 cells were monitored via confocal microscopy. The blank group was set in the absence of 2-NBDG but was treated with DMSO to determine the basal fluorescence levels in 3T3-L1 adipocytes (Figure 4A, Basal); in the negative control group, 3T3-L1 adipocytes were treated with 2-NBDG and DMSO for the evaluation of basal glucose uptake levels (Figure 4A, DMSO). […] Furthermore, to quantify 2-NBDG uptake, fluorescence intensity (Ex/Em = 485/535 nm) was measured using a plate reader. […] After incubation, the cells were washed with pre-cold PBS, and the fluorescence intensity was measured using a fluorescence microplate reader (Victor^TM X4, PerkinElmer, Waltham, MA, USA) (Ex/Em = 485/535 nm). […]

[2] = test system: 3T3-L1 adipocytes; assay: 2-NBDG glucose uptake assay in differentiated 3T3-L1 adipocytes; conditions: 10 µM, plate reader fluorescence
Protocol: as §1

[3] = test system: AMPK phosphorylation; assay: Western blot of AMPK phosphorylation in mature 3T3-L1 adipocytes; conditions: 5 or 10 µM for 1 h
Protocol: To further elucidate the pathway involved in 1e-mediated glucose uptake promotion, AMPK and Akt phosphorylation in mature 3T3-L1 adipocytes was evaluated via Western blotting following treatment with 5 or 10 µM 1e for 1 h.
The expression levels of glucose uptake-related proteins were determined via Western blotting, as previously described. In brief, differentiated 3T3-L1 cells were plated in six-well plates at a 1.5 × 10^4 cells/well density in a final volume of 2 mL. Then, the cells were incubated in the presence of DMSO or different concentrations of the compounds and harvested using a RIPA buffer (Sigma-Aldrich, Saint Louis, MS, USA) and a protease inhibitor cocktail (Roche Korea, Seoul, Korea) after 1 h of incubation. Equivalent amounts of proteins (20 µg) from each lysate were separated by 10% SDS-PAGE and transferred onto PVDF membranes (Merk KgaA, Darmstadt, Germany), where they were maintained for 120 min at 200 mA. The membranes were blocked with 5% skim milk for 1 h at room temperature in 0.1% TBST and then probed with primary antibodies at different concentrations in 0.1% BSA overnight at 4 °C according to the manufacturer’s instructions. Secondary antibodies were added to the membranes at a concentration of 1:2000 for 1 h at room temperature, and immunoreactive bands were detected via ECL (GE Healthcare Korea Co., Ltd., Incheon, Korea). […]

CCCCCCCCCCCCCOc1cccc(O)c1C(=O)O [Compound 1e]
2-NBDG uptake increase compared to the DMSO control [1]: ~1.4 fold | 2-NBDG uptake increase compared to the DMSO control [2]: approximately 2.0 fold | AMPK phosphorylation [3]: significantly induced AMPK phosphorylation in a concentration-dependent manner
